# Data from patent publication US9133235B2, “Macrocyclic antagonists of the motilin receptor for treatment of gastrointestinal dysmotility disorders” (Ocera Therapeutics, Inc., priority 2006, dated 2015).
# Assays:
# [1] = target: human motilin receptor (Homo sapiens, UniProt O43193); test: Aequorin functional assay (motilin receptor); format: cell-based; set-up: host or cells: CHO-K1 cells co-expressing Gα16 and mitochondrially targeted Aequorin; conditions: functional activity, antagonist testing vs motilin 0.5 nM (EC80)
# Experimental: B. Aequorin Functional Assay (Motilin Receptor)
# The evaluation of compounds of the invention for functional activity can be conducted according to literature methods or as described below. (Carreras, C. W.; Siani, M. A.; Santi, D. V.; Dillon, S. B. Anal. Biochem. 2002, 300, 146-151.)
# • Membranes were prepared using AequoScreen™ (EUROSCREEN, Belgium) cell lines expressing the human motilin receptor (cell line ES-380-A; receptor accession #AF034632). This cell line is constructed by transfection of the human motilin receptor into CHO-K1 cells co-expressing Gα16 and the mitochondrially targeted Aequorin (Ref. #ES-WT-A5). • Motilin (Bachem, #H-4385) • Assay buffer: DMEM-F12 (Dulbeccoe's Modified Eagles Medium) with 15 mM HEPES and 0.1% BSA (pH 7.0) • Coelenterazine (Molecular Probes™, Leiden, The Netherlands) Final Test Concentrations (N=5) for Compounds: • 10, 3.16, 1.0, 0.316, 0.10 μM. Compound Handling:
# Compounds were provided as dry films at a quantity of approximately 1.2 μmol in pre-formatted 96-well plates. Compounds were dissolved in 100% DMSO at a concentration of 10 mM and stored at −20° C. until further use. Daughter plates were prepared at a concentration of 500 μM in 30% DMSO with 0.1% BSA and stored at −20° C. until testing. On the test day, compounds were allowed to thaw at room temperature and than diluted in assay buffer according to the desired test concentrations. Under these conditions, the maximum final DMSO concentration in the assay was 0.6%.
# Cells are collected from culture plates with Ca^2+ and Mg^2+-free phosphate buffered saline (PBS) supplemented with 5 mM EDTA, pelleted for 2 minutes at 1000×g, resuspended in assay buffer (see above) at a density of 5×10^6 cells/mL and incubated overnight in the presence of 5 μM coelenterazine. After loading, cells were diluted with assay buffer to a concentration of 5×10^5 cells/mL.
# For agonist testing, 50 μL of the cell suspension was mixed with 50 μL of the appropriate concentration of test compound or motilin (reference agonist) in 96-well plates (duplicate samples). The emission of light resulting from receptor activation was recorded using the Functional Drug Screening System 6000 ‘FDSS 6000’ (Hamamatsu Photonics K. K., Japan).
# For antagonist testing, an approximate EC80 concentration of motilin (i.e. 0.5 nM; 100 μL) was injected onto the cell suspension containing the test compounds (duplicate samples) 15-30 minutes after the end of agonist testing and the consequent emission of light resulting from receptor activation was measured as described in the paragraph above.
# Results are expressed as Relative Light Units (RLU). Concentration response curves were analyzed using GraphPad™ Prism® (GraphPad Software, San Diego, Calif.) by non-linear regression analysis (sigmoidal dose-response) based on the equation E=Emax/(1+EC50/C)n where E is the measured RLU value at a given agonist concentration (C), Emax is the maximal response, EC50 is the concentration producing 50% stimulation and n is the slope index. For agonist testing, results for each concentration of test compound were expressed as percent activation relative to the signal induced by motilin at a concentration equal to the EC80 (i.e. 0.5 nM). For antagonist testing, results for each concentration of test compound were expressed as percent inhibition relative to the signal induced by motilin at a concentration equal to the EC80 (i.e. 0.5 nM).
# [2] = target: T1, CYP1A2 (Homo sapiens, UniProt P05177); test: Cytochrome P450 inhibition, CYP1A2; format: in vitro ADME; conditions: Supersomes; read-out: IC50 (μM) 1A2
# T1 construct: purchased BD Gentest, Becton-Dickinson (Supersomes); host or cells: insect cells (microsomes)
# T1 sequence (P05177 1-516): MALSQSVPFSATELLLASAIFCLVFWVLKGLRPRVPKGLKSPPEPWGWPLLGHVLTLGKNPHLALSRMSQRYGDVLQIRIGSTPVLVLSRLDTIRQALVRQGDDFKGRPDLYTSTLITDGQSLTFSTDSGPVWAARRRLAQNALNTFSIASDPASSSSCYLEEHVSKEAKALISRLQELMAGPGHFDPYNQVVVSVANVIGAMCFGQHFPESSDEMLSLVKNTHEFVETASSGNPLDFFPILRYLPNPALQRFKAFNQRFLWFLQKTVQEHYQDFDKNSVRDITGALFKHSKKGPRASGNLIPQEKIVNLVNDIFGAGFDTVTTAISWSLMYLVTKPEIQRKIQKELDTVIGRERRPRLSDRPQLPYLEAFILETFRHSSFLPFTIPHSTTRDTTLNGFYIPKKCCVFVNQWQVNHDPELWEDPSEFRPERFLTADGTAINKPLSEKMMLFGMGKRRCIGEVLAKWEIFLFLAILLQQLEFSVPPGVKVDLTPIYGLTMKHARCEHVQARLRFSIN
# Source text: (§1) F. Assay for Cytochrome P450 Inhibition
# (§2) Cytochrome P450 enzymes are implicated in the phase I metabolism of drugs. The majority of drug-drug interactions are metabolism-based and, moreover, these interactions typically involve inhibition of cytochrome P450s. Six CYP450 enzymes (CYP1A2, CYP2C8, CYP2C9, CYP2C19, CYP2D6 and CYP3A4) appear to be commonly responsible for the metabolism of most drugs and the associated drug-drug interactions. Assays to determine the binding of compounds of the invention to the various metabolically important isoforms of cytochrome P450 metabolizing enzymes are commercially available, for example NoAb BioDiscoveries (Mississaugua, ON, Canada) and Absorption Systems (Exton, Pa., USA). As well, a number of appropriate methods have been described or reviewed in the literature. (White, R. E. Ann. Rev. Pharmacol. Toxicol. 2000, 40, 133-157; Li, A. P. Drug. Disc. Today 2001, 6, 357-366; Turpeinen, M.; Korhonen, L. E. Tolonen, A.; et al. Eur. J. Pharm. Sci. 2006, 29, 130-138.)
# (§3) The concentration of the inhibitor or test compound that inhibited metabolite formation by 50% (IC50) was calculated by non-linear regression analysis of the % inhibition vs. log concentration (M) curve.
# [3] = target: T2, CYP2C19 (Homo sapiens, UniProt P33261); test: Cytochrome P450 inhibition, CYP2C19; format: in vitro ADME; conditions: Supersomes; read-out: IC50 (μM) 2C19
# T2 construct: purchased BD Gentest, Becton-Dickinson (Supersomes); host or cells: insect cells (microsomes)
# Source text: as §1, §2, §3
# [4] = target: T3, CYP2D6 (Homo sapiens, UniProt P10635); test: Cytochrome P450 inhibition, CYP2D6; format: in vitro ADME; conditions: Supersomes; read-out: IC50 (μM) 2D6
# T3 construct: purchased BD Gentest, Becton-Dickinson (Supersomes); host or cells: insect cells (microsomes)
# Source text: as §1, §2, §3
# T2 sequence (P33261 whole entry): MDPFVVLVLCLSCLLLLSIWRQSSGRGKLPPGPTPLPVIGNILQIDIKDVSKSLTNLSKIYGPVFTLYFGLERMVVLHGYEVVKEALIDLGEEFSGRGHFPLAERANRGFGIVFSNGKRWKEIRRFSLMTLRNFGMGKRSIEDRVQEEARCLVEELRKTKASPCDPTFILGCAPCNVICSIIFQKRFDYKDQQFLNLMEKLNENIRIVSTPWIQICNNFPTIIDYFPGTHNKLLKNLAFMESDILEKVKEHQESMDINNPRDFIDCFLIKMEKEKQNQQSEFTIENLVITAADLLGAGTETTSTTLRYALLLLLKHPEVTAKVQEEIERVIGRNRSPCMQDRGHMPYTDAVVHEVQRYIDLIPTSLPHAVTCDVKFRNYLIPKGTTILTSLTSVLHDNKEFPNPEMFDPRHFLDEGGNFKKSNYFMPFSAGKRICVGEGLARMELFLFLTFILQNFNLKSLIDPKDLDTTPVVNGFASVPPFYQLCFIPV
# Chain of human motilin receptor (O43193 whole entry): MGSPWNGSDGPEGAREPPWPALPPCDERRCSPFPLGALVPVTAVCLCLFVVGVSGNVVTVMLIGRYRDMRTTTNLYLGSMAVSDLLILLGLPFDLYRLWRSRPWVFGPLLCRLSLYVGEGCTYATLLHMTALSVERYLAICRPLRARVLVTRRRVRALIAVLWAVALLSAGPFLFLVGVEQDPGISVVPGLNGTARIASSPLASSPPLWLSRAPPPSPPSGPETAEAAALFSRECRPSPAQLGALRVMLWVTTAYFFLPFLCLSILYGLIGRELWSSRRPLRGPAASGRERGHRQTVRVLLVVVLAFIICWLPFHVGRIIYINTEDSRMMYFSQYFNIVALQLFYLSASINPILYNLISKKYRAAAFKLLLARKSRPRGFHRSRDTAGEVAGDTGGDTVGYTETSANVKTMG
# T3 sequence (P10635 whole entry): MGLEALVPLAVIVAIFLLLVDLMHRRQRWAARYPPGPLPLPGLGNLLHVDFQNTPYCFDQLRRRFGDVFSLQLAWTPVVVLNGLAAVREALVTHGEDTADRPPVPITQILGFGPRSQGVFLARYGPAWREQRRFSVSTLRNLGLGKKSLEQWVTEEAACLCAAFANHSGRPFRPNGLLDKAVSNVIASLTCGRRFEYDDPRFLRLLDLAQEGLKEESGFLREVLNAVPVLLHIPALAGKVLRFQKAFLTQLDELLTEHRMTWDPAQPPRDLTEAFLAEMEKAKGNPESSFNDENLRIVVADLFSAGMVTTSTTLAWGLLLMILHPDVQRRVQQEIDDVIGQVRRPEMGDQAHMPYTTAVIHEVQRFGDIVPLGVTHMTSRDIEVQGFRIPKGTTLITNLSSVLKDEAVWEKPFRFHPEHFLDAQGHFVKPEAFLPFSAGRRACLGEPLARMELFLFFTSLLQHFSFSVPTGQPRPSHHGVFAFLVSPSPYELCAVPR
IC50 [1],IC50 [2],IC50 [3],IC50 [4],Structure (SMILES)
≤ 0.01 µM,–,–,–,CC(C)[C@H]1NC(=O)[C@@H](Cc2cccc(C(F)(F)F)c2)NCCOc2ccccc2CCCNC(=O)[C@H](CN(C)C)NC1=O [Compound 502]
–,> 100 µM,37 µM,30.1 µM,CCC[C@@H]1NC(=O)[C@@H](C(C)C)NC(=O)[C@@H](Cc2cccc(F)c2)N[C@@H](C)COc2ccccc2CCCNC1=O [Compound 551]
≤ 0.001 µM,–,–,–,CCC[C@@H]1NC(=O)[C@@H](C(C)C)NC(=O)[C@@H](Cc2ccc(O)c(Cl)c2)N[C@@H](C)COc2ccccc2CCCNC1=O [Compound 552]
–,> 100 µM,> 100 µM,80.8 µM,CCC[C@@H]1NC(=O)[C@@H](C(C)C)NC(=O)[C@@H](Cc2ccc(O)c(C(C)(C)C)c2)NCCOc2ccccc2CCCNC1=O [Compound 553]
